Patent US20250025445A1, “METHOD OF CARDIOPROTECTION” (Race Oncology LTD., priority 2021, published 2025)
Like-named read-outs stand apart in the source and are kept apart here.

Assays:
[1] = tested on: colon 26, Lewis lung, Ridgway osteosarcoma, B16, Lieberman plasma cell, P388 or L1210 cancer cells; details: cited from earlier work
[2] = tested on: Primary Human Cardiac Myocytes (HCMs); assay: Primary human cardiomyocyte cell viability (CellTiter-Glo); type: cell-based
Description: Primary Human Cardiac Myocytes (HCMs) were purchased from PromoCell® (Heidelberg, Germany) and cultured according to manufacturer's recommendations using PromoCell® Myocyte growth media (5% [v/v] foetal calf serum, 0.5 ng/ml recombinant human epidermal growth factor, 2 ng/ml recombinant human basic fibroblast growth factor, 5 μg/ml recombinant human insulin) supplemented with 1% [v/v] Penicillin-Streptomycin [Sigma-Aldrich]). Briefly, 1×10^6 HCMs were seeded and grown in Corning® T75 flasks (Sigma-Aldrich, New South Wales, Australia) in an incubator at 37° C. under 5% CO2 conditions. At 80-90% confluency, HCMs were gently detached using the DetachKit (PromoCell®), collected into Corning® 50 mL centrifuge tubes (Sigma-Aldrich), and centrifuged at 300×g for 10 mins at room temperature. The resulting supernatant were discarded and HCM pellet was resuspended with 5-10 mL of pre-warmed Myocyte Growth Medium. Total viable cells were enumerated with Invitrogen™ Countess Cell Counter (Thermo Fisher Scientific, New South Wales, Australia) and 1×10^5 live HCMs were seeded in triplicate into Corning® 96-well white polystyrene microplate (Sigma).
(§1) Dox, Dauno and Epi, were dissolved in sterile water to make a stock concentration of 20 mM, respectively, while Tz was dissolved in sterile PBS to a stock concentration of 100 μM. […] The concentrations were as follows 0 nM, 15.62 nM, 62.5 nM, 250 nM, 500 nM, 1 μM, 5 μM, and 10 μM. […] Vehicle controls were incubated with media supplemented with either sterile water or DMSO. […] This was repeated at 48 hours and 72 hours. […] Both FB23/2 and brequinar (MedChemExpress) were dissolved in dimethyl sulfoxide (DMSO; Sigma-Aldrich) to make a stock concentration of 40 mM and 20 mM respectively.

[3] = tested on: MCF7 breast cancer cells; assay: MCF7 breast cancer cell viability (CellTiter-Glo); type: cell-based, human; details: 72 hours
Description: Human breast adenocarcinoma (MCF7) cells were purchased from In Vitro Technologies (Victoria, Australia) and cultured according to manufacturer's recommendations using MCF7 growth media, Low glucose Dulbecco's Modified Eagle's medium (DMEM; Sigma-Aldrich, Australia) supplemented with 10% (v/v) foetal calf serum (Sigma-Aldrich) and 1% (v/v) Penicillin-Streptomycin (Sigma-Aldrich). Briefly, 1×10^6 MCF7 were seeded and grown in Corning® T75 flasks (Sigma-Aldrich) in an incubator at 37° C. under 5% CO2 conditions. At 80-90% confluency, MCF7 were washed with Dulbecco's Phosphate Buffered Saline (Sigma-Aldrich) for 30s at room temperature and followed by incubation with Trypsin-EDTA (Sigma-Aldrich) for 5 mins at 37° C. under 5% CO2 conditions. Trypsin solution was then neutralised with 1:1 volume of MCF7 growth media. The cell suspensions were then collected into Corning® 50 mL centrifuge tubes (Sigma-Aldrich) and centrifuged at 300×g for 10 mins at room temperature. The resulting supernatants were discarded and MCF7 pellets were resuspended with 5-10 mL of pre-warmed MCF7 growth media. Total viable cells were enumerated with Invitrogen™ Countess Cell Counter (Thermo Fisher Scientific, New South Wales, Australia) and 9×10^4 live MCF7 were seeded in triplicate into Corning® 96-well white polystyrene microplate (Sigma).
as §1

[4] = Doxorubicin cardiotoxicity in mice: blood tests
Description: (§2) In particular, well established cardiotoxicity markers, including left ventricular fractional shortening, heart E/A ratio, left ventricular diastolic function, left ventricular dilatation, cardiac output, plasma triglyceride levels, plasma creatine kinase-MB (CK-MB), plasma LDH (lactate dehydrogenase) and plasma brain natriuretic peptide (BNP) were monitored over a period of up to 42 days following the start of treatments delivered weekly, four times (and therefore final treatment on day 21).
(§3) Treatments were delivered to mice intravenously on days 0, 7, 14 and 21. Mice underwent echocardiography measurements at days 0, 21 and 42 to determine LVEF, FS, EDV, ESV, CO, E wave, A wave, E′, E/A, and E/E′, and blood samples were taken at days 0, 21 and 42 to assay for cardiac troponin I levels, BNP levels, CK, LDH levels and triglycerides.

[5] = Doxorubicin cardiotoxicity in mice: histologic cardiac fibrosis; type: in vivo; details: bisantrene co-administered with doxorubicin at 1:1 molar ratio; Day 21; relative to matched doses of doxorubicin
Description: as §2, §3

[6] = tested on: MDA-MB-231 breast cancer cells; assay: MDA-MB-231 breast cancer cell viability with Webb synergy analysis; type: cell-based, human
Description: Human breast cancer cell line NDA-MB-231 was cultured in a humidified chamber at 37° C. with 5% CO2 in DMEM supplemented with 10% foetal bovine serum (FBS), 2 mM L-glutamine and 2% HEPES. Cells were maintained adherent.

[7] = bisantrene 3.67 mg/kg + doxorubicin 5 mg/kg (Dox+Bis 1:1)
[8] = bisantrene 5.65 mg/kg + doxorubicin 4 mg/kg (Dox+Bis 80% of 1:2)

## C(=NNC1=NCCN1)c1c2ccccc2c(C=NNC2=NCCN2)c2ccccc12 [bisantrene, 9,10-anthracenedicarboxaldehyde bis [(4,5-dihydro-1H-imidazol-2-yl)hydrazone]]
[1]
  effectiveness in cancer models: effective
[2]; 0-5 μM bisantrene with 1 μM carfilzomib, 24, 48, 72 hrs, FIG. 1
  protection of cardiomyocytes against toxicity of CFZ: concentration-dependent protection
[2]; 0-5 μM bisantrene with 1 μM doxorubicin, 24, 48, 72 hrs, FIG. 1
  protection of cardiomyocytes against toxicity of Dox: concentration-dependent protection
[2]; 1 μM bisantrene coadministered with bortezomib, 72 hours, FIG. 7
  rescue of bortezomib cardiomyocyte toxicity: significant rescue of cardiomyocyte toxicity
[2]; 1 μM bisantrene coadministered with carfilzomib, 72 hours, FIG. 7
  rescue of carfilzomib cardiomyocyte toxicity: significant rescue of cardiomyocyte toxicity
[2]; 1 μM bisantrene with 1 μM daunorubicin, 72 hours, FIG. 5
  rescue of daunorubicin cardiotoxicity on cardiomyocytes: cardiotoxicity rescue effects
[2]; 1 μM bisantrene with 1 μM epirubicin, 72 hours, FIG. 6
  rescue of epirubicin cardiotoxicity on cardiomyocytes: a trend toward statistical significance
[2]; 1 or 5 μM bisantrene with 1 μM doxorubicin and 500 nM trastuzumab, FIG. 2
  effect on combined toxicity of doxorubicin and trastuzumab to cardiomyocytes: reduced the combined toxicity
[2]; 1 or 5 μM bisantrene with 1 μM doxorubicin, FIG. 2
  effect of increasing bisantrene on loss of cardiomyocyte viability with doxorubicin alone: reduced loss of viability
[2]; agent alone (1 μM doxorubicin, 1 μM carfilzomib, 0-5 μM bisantrene), 24 hrs, 48 hrs and 72 hrs, FIG. 1
  toxicity (loss in cell viability) to cardiomyocytes: mild progressive toxicity
[7]
  mitigation of doxorubicin cardiotoxicity: cardiac output: mitigation of doxorubicin cardiotoxicity
  mitigation of doxorubicin cardiotoxicity: left ventricular diastolic function: appeared to mitigate the cardiotoxic effects
  mitigation of doxorubicin cardiotoxicity: left ventricular dilatation: appeared to mitigate the cardiotoxic effects
  mitigation of doxorubicin cardiotoxicity: left ventricular fractional shortening: significantly mitigated
[8]
  mitigation of doxorubicin cardiotoxicity: cardiac output: even less effect
  mitigation of doxorubicin cardiotoxicity: left ventricular fractional shortening: less effect
Bisantrene 7.33 mg/kg + doxorubicin 5 mg/kg (Dox+Bis 1:2)
  mitigation of doxorubicin cardiotoxicity: left ventricular fractional shortening: significantly mitigated
Bisantrene 7.33 mg/kg + doxorubicin 5 mg/kg (Dox+Bis 1:2), compared to Dox+Bis 1:1
  mitigation of doxorubicin cardiotoxicity: cardiac output: mitigation of doxorubicin cardiotoxicity was slightly greater
Bisantrene 7.33 mg/kg alone
  cardiac output: suggestion (but not significant) of mild deleterious effects
  left ventricular diastolic function: suggestion (but not significant) of mild deleterious effects
  left ventricular dilatation: suggestion (but not significant) of mild deleterious effects
Bisantrene 7.33 mg/kg alone, i.v. days 0, 7, 14, 21
  left ventricular fractional shortening: suggestion (but not significant) of mild deleterious effects
[3]; 0-10 μM bisantrene alone, FIG. 3
  toxicity to MCF7 breast cancer cells: concentration-dependent toxicity
[3]; 0-10 μM bisantrene with 1 μM carfilzomib, FIG. 3
  interference with toxicity of carfilzomib to MCF7 cells: did not interfere with the toxicity
[3]; 0-10 μM bisantrene with 1 μM doxorubicin or 1 μM carfilzomib
  combined toxicity of bisantrene with doxorubicin or carfilzomib to MCF7 cells: additive toxicity
[3]; 0-10 μM bisantrene with 1 μM doxorubicin, FIG. 3
  interference with toxicity of doxorubicin to MCF7 cells: did not interfere with the toxicity
[4]; bisantrene 3.67 mg/kg + doxorubicin 5 mg/kg (Dox+Bis 1:1), day 21
  plasma CK-MB levels: kept CK-MB levels down at or near the vehicle-only control levels
[4]; bisantrene 3.67 mg/kg + doxorubicin 5 mg/kg (Dox+Bis 1:1), day 21 and day 42
  mitigation of doxorubicin-induced plasma triglyceride increases: significant mitigation
[4]; [8]
  mitigation of doxorubicin-induced plasma triglyceride increases: less effect
[4]; bisantrene 7.33 mg/kg + doxorubicin 5 mg/kg (Dox+Bis 1:2), day 21
  plasma CK-MB levels: kept CK-MB levels down at or near the vehicle-only control levels
[4]; bisantrene 7.33 mg/kg + doxorubicin 5 mg/kg (Dox+Bis 1:2), day 42
  mitigation of doxorubicin-induced plasma triglyceride increases: significant mitigation
[4]; bisantrene 7.33 mg/kg + doxorubicin 5 mg/kg (Dox: Bis 1:2), day 42 or day 21
  brain natriuretic peptide levels (mitigation of doxorubicin effects): not significant
[4]; bisantrene 7.33 mg/kg alone, day 21, vs vehicle-only control
  plasma triglycerides: slight (but insignificant) increase
[4]; bisantrene 7.33 mg/kg alone, day 42, vs vehicle-only control
  plasma triglycerides (increase): not at day 42
[5]
  histologic cardiac fibrosis: significantly decreased
[6]; bisantrene alone, FIGS. 8 to 10
  toxic effects against MDA-MB-231 breast cancer cells: concentration-dependent toxic effects
[6]; bisantrene with carfilzomib, Webb synergy analysis, FIG. 10C
  combined effect with carfilzomib on MDA-MB-231 cells: at least additive to, if not synergistic with
[6]; bisantrene with doxorubicin, Webb synergy analysis, FIGS. 8, 10A
  combined effect with doxorubicin on MDA-MB-231 cells: at least additive to, if not synergistic with
[6]; bisantrene with epirubicin, Webb synergy analysis, FIGS. 9, 10B
  combined effect with epirubicin on MDA-MB-231 cells: at least additive to, if not synergistic with
